In a melting point compilation (Tetko et al.; mined from patent text by program, amines drawn as free bases though some values may be those of a salt):

melting point	SMILES
58 °C	O=C(C[C@@H](C(=O)OCc1ccccc1)n1c2ccccc2c2ccccc21)OCCOC(=O)c1ccc(NC(=O)OCc2ccccc2)cc1
172 to 176 °C	O=c1ccc2ccc(CBr)cc2o1
> 260 °C	CCOC(=O)C=CC(=O)Nc1ccc2c(Nc3cccc(Br)c3)ncnc2c1
203 to 205 °C	Cn1c(=O)c2c(ncn2CCCN2CCC(NC(=O)c3ccc(N)cc3)CC2)n(C)c1=O
190 to 192 °C	O=C(O)CCn1c(=O)c(=O)[nH]c2cc(C(F)(F)F)c(-n3cccc3)cc21
158 to 161 °C	CON=Cc1ccc(-c2ccccc2NC(=O)c2c(C)nn(C)c2F)cc1F
71 to 73 °C	COC(=O)[C@@H]1O[C@@H](c2ccccc2)N(NS(=O)(=O)c2c3ccccc3cc3ccccc23)[C@H]1c1ccccc1
141 to 151 °C	CCCCN(CCCC)c1ccc(C=CC2=C(OC)C(=CC=CC3=C(C#N)C(=C(C#N)C#N)OC3(C)C(F)(F)F)CC(C)(C)C2)c(OC)c1 (stereo not drawn)
222 to 223 °C	N#Cc1ccc(OCc2ccc(Cl)c(Cl)c2)cc1
130 to 131 °C	O=S(=O)(CCCl)CCC(F)(F)C(F)(F)C(F)(F)C(F)(F)C(F)(F)C(F)(F)C(F)(F)C(F)(F)F
193 °C	COc1ccccc1Sc1c(NS(=O)(=O)c2ccc(C(C)(C)C)cc2)ncnc1OCCOC(=O)Nc1ccccn1
132 °C	CCCCCCCCC#CCC#CCC#CCS(=O)(=O)CC(=O)O
> 300 °C	CC(=O)Nc1nc2ncn(C)c(=S)n2n1
198 to 199 °C	CCC#C[C@]1(C(F)(F)F)O[C@@H](c2ccccc2)C(=O)Nc2ccc(Cl)cc21 (relative stereo)
191 to 193 °C	O=C(O)C1Cc2c(cc(Cl)c3c(-c4ccccc4F)noc23)O1 (stereo not drawn)
144 to 146 °C	Oc1ccc(SSc2ccc(O)cc2)cc1
184 °C	O=C1CCC2=C(CCc3cccc(Cl)c32)N1
198 to 201 °C	CS(=O)(=O)c1ccc(C2=C(c3ccc(-c4cccs4)cc3)C(=O)OC2)cc1
213 to 214 °C	CNC(=O)[C@H](CO[Si](C)(C)C(C)(C)C)NC(=O)Nc1n[nH]c(=S)s1
152 to 153 °C	COc1cnc(NCCNCC(O)COc2ccccc2)c2ccccc12 (stereo not drawn)
64.5 °C	CN(CC(=O)O)c1ccc(C#N)cc1
80 to 82 °C	O=[N+]([O-])c1ccc2c(c1)OC(CO)O2 (stereo not drawn)
291 to 293 °C	CCC(=O)Nc1nc(-c2cc(C)cc(C)c2)c(-c2ccncc2)s1

melting point	SMILES
112 to 113 °C	CC[C@@H](c1ccccc1)N(Cc1ccc(C(=O)O)cn1)S(=O)(=O)c1ccc(Cl)cc1
167 °C	O=C(O)CCCCCCCn1c(-c2ccc(O)cc2)nc(-c2ccccc2)c1-c1ccccc1
112 to 114 °C	CS(=O)(=O)Nc1cc(N)ccc1Oc1ccccc1
87 to 88.5 °C	Cc1nc(C(Br)Br)nc(C(Br)Br)n1
106 °C	c1ccc(Cn2nc(-c3ccco3)c3cncnc32)cc1
142 to 144 °C	Cc1cccc(Nc2cc(Nc3cccc(OCCCN(C)C)c3)ncn2)c1
188 °C	N=C(N)c1ccc(CC23CCCN2C(=O)N(c2cc(Cl)cc(Cl)c2)C3=O)cc1 (stereo not drawn)
183 to 186 °C	CCOC(=O)CC[C@H](NC(=O)c1ccc(C(COC2CCCCO2)CC2CNc3nc(NC(=O)C(C)(C)C)nc(O)c3C2)cc1)C(=O)OCC (stereo partly drawn)
153 °C	Nc1cc(=O)n(Cc2ccccc2Cl)[nH]1
160 to 161 °C	CCCc1nccn1N=Cc1cc(C(C)(C)C)c(O)c(C(C)(C)C)c1
184 to 186 °C	CCOC(=O)c1cnc2c3cc(OC)ccc3ccn2c1=O
180 to 182 °C	OCc1cc(CO)n(C(c2ccccc2)(c2ccccc2)c2ccccc2)n1
195 to 197 °C	Nc1ncc(Br)cc1O
134 °C	CC(C)(C)C(=O)C(CS(=O)(=O)c1ccc(Cl)cc1)n1cncn1 (stereo not drawn)
115 to 117 °C	Cc1occc1S(=O)(=O)C(C)(Cc1ccc(OCCN2CCCCC2)cc1)C(=O)NO (stereo not drawn)
113 to 115 °C	O=[N+]([O-])c1ccc(Oc2cccc3cccnc23)c(Cl)c1
209 °C	CC(=O)N[C@H]1C[C@@H](c2cc(NC(=O)Cc3cccc4ccccc34)n[nH]2)C1
212 to 215 °C	CCC(=O)Nc1nc2ccc(Cl)cc2n2c(CC)nnc12
128 to 130 °C	CC1=CC(c2cccc(Cl)c2)C=C(CN2C(=O)c3ccccc3C2=O)N1 (stereo not drawn)
135 to 137 °C	Cc1ccc(S(=O)(=O)C2=C(C(=O)OC3CCCCC3)C(=O)C=C(C(=O)OC3CCCCC3)C2=O)cc1
201 °C	CNC(=S)NS(=O)(=O)c1cc2c(cc1OC)OCCC2CNC(=O)c1cc(Cl)ccc1OC (single isomer, unassigned; (+))
122 to 123 °C	CC(=O)OC1CCC2(C)C(CCC3C4CCC(C(C)CC(=O)C(=O)N5CCOCC5)C4(C)CC(=O)C32)C1 (stereo not drawn)
122 °C	CCCC(C)(O)C(=O)Nc1cc(Br)nc(OC)c1 (stereo not drawn)

melting point	SMILES
164 to 166 °C	N[C@@H](C[C@@H](CC#Cc1ccccc1)C(=O)O)C(=O)O
99 to 101 °C	CCCCCC(C)(c1ccc(O)c(C)c1)c1ccc(O)c(C)c1
127 °C	COc1ncccc1-c1ccc(OC2SCC(O)C(O)C2O)cn1 (stereo not drawn)
176 to 178 °C	COc1cc(C[NH+]([O-])C(=O)C(F)(F)F)ccn1 (stereo not drawn)
140 to 142 °C	COc1cccc(OC)c1C(=O)N1CC2CCCN2c2ccccc21 (stereo not drawn)
166 °C	O=C(O)c1ccc2c(c1)OC(c1cccc(Cl)c1)(c1cccc(Cl)c1)O2
162 to 165 °C	COC(=O)CCCc1cc2cc(Cl)ccc2n1S(=O)(=O)c1ccc2c(c1)CCN2C(C)=O
151 to 155 °C	CCN1C(=O)C(C)(C)C(=O)N(C)c2cc(CCCN(CCn3ccc4occc4c3=O)Cc3cccnc3C)ccc21
178 to 179 °C	CCc1ccc2oc(-c3ccc(C=C4C(=O)C5(C)CCC4C5(C)C)cc3)nc2c1 (stereo not drawn)
179 to 181 °C	O=C(CCCCNC(=O)c1cn2c3c(cccc13)CCC2)NO
139 to 140 °C	CCOC(=O)N1CCN(c2nc(=O)c3cccnc3s2)CC1
105 to 106 °C	CCOC(=O)C1=C(C)NC(C)=C(C(=O)OCC)C1c1ccccc1/C=C(\C)C(=O)OCC
280 to 282 °C	CN(c1nc(-c2cc3ccccc3[nH]c2=O)cs1)S(=O)(=O)c1ccc(Br)cc1
180 to 181 °C	Cc1c(COC(=O)N(c2ccccc2)c2ccccc2)cccc1OCC(=O)O
280 to 281 °C	COC(=O)c1cc(-c2ccc3c(c2)c2cc(-c4ccc(Cl)cc4Cl)c(=O)n(C)c2n3C)on1
198 to 200 °C	CCOC(=O)c1cc2c3n(ccc-2n1)CC(c1cccc(OC)c1)=N3
82 °C	C=Cc1ccc(NS(C)(=O)=O)c(F)c1
155 °C	CC(C)c1ccc(S(=O)(=O)n2c(CCCC(=O)O)cc3nc(Cl)ccc32)cc1
87 to 89 °C	C=CCNC(=O)N1CC(Oc2cccc(Cl)c2)C1
172 °C	N#Cc1ccc2c(c1)CN1C(=Nc3cccnc3)SC[C@@H]1C2
136 to 138 °C	CCOC(=O)CCc1cccc(C2COc3c(C)c(C)c(NC(=O)CC(C)(C)C)c(C)c32)c1 (stereo not drawn)

SMILES	melting point
CC[C@H]1[C@@H](O)[C@H](C)C(=O)N1c1ccc(C#N)c(OC)c1	78 to 81 °C
